Laboratory results as given in patent publication US20090105305A1, “Therapeutic Agents - 550” (AstraZeneca AB, priority 2006, published 2009).

Biological target: T1, human Fatty Acid Synthase (Homo sapiens, UniProt P49327)
T1 construct: made in house
Test: Human FAS enzyme assay (decrease in NADPH fluorescence)
Type: biochemical
Settings: % inhibition at a concentration of 100 micromolar
How it was run: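 In-house human FAS (0.4 μg) was preincubated 15 min at RT with compound and NADPH (added at 166.6 μM) in 0.1 M Tris pH 7.5, 1 mM glutathione, 0.05% BSA. Malonyl-/acetyl-CoA (500/150 μM in substrate mix) was then added for 60 min. Readout was NADPH fluorescence loss (ex 340/em 460) over a time-zero read, with IC50 from a sigmoid fit.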

T1 sequence (P49327 whole entry): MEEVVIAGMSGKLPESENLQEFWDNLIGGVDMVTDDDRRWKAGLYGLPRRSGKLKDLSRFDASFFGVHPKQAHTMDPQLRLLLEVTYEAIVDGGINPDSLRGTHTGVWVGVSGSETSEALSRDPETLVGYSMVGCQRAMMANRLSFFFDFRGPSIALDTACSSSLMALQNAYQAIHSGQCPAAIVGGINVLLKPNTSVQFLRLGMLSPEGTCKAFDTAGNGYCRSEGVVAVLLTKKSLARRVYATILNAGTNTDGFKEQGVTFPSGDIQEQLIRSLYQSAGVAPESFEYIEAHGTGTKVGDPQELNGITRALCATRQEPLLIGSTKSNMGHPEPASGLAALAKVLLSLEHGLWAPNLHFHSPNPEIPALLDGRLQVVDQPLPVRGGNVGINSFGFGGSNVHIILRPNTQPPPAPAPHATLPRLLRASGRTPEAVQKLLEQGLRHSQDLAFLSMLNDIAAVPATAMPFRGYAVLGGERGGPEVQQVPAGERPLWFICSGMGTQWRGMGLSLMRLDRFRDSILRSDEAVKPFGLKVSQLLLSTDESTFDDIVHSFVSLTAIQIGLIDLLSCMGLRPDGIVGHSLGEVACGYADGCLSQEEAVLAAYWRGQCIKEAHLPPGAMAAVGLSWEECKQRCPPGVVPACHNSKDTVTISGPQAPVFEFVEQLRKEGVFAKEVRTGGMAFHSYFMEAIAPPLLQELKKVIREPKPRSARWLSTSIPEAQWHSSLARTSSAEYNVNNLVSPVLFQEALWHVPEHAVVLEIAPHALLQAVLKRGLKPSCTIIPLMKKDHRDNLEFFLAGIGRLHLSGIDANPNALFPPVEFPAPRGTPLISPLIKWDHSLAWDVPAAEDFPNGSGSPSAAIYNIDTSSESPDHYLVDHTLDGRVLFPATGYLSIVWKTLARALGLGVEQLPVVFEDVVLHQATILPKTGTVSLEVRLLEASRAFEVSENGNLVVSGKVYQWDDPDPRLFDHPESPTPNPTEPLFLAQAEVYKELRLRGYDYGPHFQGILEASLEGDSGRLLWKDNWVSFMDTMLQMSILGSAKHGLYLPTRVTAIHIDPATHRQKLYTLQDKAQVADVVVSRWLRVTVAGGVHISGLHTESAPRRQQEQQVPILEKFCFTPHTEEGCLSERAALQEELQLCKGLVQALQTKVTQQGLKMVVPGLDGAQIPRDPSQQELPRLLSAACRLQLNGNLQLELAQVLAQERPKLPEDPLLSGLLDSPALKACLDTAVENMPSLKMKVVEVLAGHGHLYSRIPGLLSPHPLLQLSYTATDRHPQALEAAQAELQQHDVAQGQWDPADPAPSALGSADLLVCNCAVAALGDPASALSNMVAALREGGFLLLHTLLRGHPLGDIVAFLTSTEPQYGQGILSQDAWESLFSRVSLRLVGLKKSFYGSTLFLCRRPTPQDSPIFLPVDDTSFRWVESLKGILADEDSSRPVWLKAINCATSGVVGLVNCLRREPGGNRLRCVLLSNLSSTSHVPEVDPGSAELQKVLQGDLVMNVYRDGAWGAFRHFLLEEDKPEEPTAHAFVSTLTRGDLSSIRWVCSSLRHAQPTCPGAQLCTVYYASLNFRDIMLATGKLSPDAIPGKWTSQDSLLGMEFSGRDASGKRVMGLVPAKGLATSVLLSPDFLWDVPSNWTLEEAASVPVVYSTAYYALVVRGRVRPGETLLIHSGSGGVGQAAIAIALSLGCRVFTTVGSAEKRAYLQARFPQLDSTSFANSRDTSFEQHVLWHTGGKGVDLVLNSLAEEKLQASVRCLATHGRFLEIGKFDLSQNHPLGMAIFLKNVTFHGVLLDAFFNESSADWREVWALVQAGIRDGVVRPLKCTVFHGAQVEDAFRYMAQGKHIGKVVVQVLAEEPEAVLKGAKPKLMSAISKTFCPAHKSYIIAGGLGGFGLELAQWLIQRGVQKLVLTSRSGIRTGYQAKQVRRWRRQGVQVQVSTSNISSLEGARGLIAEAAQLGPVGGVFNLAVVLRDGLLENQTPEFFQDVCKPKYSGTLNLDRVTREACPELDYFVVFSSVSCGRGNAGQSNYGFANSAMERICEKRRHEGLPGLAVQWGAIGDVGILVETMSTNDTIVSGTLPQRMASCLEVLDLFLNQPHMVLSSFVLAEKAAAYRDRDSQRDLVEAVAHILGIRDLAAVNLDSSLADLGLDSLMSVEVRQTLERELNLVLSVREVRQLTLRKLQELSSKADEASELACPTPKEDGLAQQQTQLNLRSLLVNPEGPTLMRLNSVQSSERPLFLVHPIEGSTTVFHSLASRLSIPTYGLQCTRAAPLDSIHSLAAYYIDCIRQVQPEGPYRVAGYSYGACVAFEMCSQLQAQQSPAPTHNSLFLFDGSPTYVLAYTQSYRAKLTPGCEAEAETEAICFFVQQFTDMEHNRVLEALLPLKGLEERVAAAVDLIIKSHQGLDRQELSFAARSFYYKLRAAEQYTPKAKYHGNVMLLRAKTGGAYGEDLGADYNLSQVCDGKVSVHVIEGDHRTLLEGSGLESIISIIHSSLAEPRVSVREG

inhibition at 100 µM [%] | Inhib % [%] | SMILES
85.2 |  | CCCS(=O)(=O)NCc1ccc(C2CCN(C(=O)c3ccc(C)c(NS(C)(=O)=O)c3)CC2)cc1 [Example 237, N-[[4-[1-(3-methanesulfonamido-4-methylbenzoyl)piperidin-4-yl]phenyl]methyl]propane-1-sulfonamide]
81.3 |  | Cc1ccc(C(=O)N2CCC(c3ccc(CNS(=O)(=O)CC(C)C)cc3)CC2)cc1NS(C)(=O)=O [Example 238, N-[[4-[1-(3-methanesulfonamido-4-methylbenzoyl)piperidin-4-yl]phenyl]methyl]-2-methylpropane-1-sulfonamide]
89.1 |  | COC(=O)NCc1ccc(C2CCN(C(=O)c3ccc(C)c(NS(C)(=O)=O)c3)CC2)cc1 [Example 239, Methyl N-[[4-[1-(3-methanesulfonamido-4-methylbenzoyl)piperidin-4-yl]phenyl]methyl]carbamate]
63.9 |  | CNC(=O)Cc1ccc(C2CCN(C(=O)c3ccc(C)c(NS(C)(=O)=O)c3)CC2)cc1 [Example 240, 2-[4-[1-(3-methanesulfonamido-4-methylbenzoyl)piperidin-4-yl]phenyl]-N-methylacetamide]
81.5 |  | Cc1ccc(C(=O)N2CCC(c3ccc(CNC(=O)CO)cc3)CC2)cc1NS(C)(=O)=O [Example 241, 2-hydroxy-N-[[4-[1-(3-methanesulfonamido-4-methylbenzoyl)piperidin-4-yl]phenyl]methyl]acetamide]
95.7 |  | Cc1ccc(C(=O)N2CCC(c3ccc(CNS(=O)(=O)N(C)C)cc3)CC2)cc1NS(C)(=O)=O [Example 242, N-[5-[4-[4-[(dimethylsulfamoylamino)methyl]phenyl]piperidine-1-carbonyl]-2-methylphenyl]methanesulfonamide]
69.9 |  | Cc1ccc(C(=O)N2CCC(c3ccc(CN4CCOCC4)cc3)CC2)cc1NS(C)(=O)=O [Example 243, N-[2-methyl-5-[4-[4-(morpholin-4-ylmethyl)phenyl]piperidine-1-carbonyl]phenyl]methanesulfonamide]
92.3 |  | Cc1ccc(C(=O)N2CCC(c3ccc(CCC(=O)O)cc3)CC2)cc1NS(=O)(=O)C1CCCCC1 [Example 244, 3-[4-[1-[3-(cyclohexylsulfonylamino)-4-methylbenzoyl]piperidin-4-yl]phenyl]propanoic acid]
104 |  | COC(=O)CS(=O)(=O)NCc1ccc(C2CCN(C(=O)c3ccc(C)c(NS(C)(=O)=O)c3)CC2)cc1 [Example 245, Methyl 2-[[4-[1-(3-methanesulfonamido-4-methylbenzoyl)piperidin-4-yl]phenyl]methylsulfamoyl]acetate]
 | 92.8 | Cc1ccc(C(=O)N2CCC(c3ccc(CCCC(=O)O)cc3)CC2)cc1NS(=O)(=O)C1CCCCC1 [Example 246, 4-[4-[[13-(cyclohexylsulfonylamino)-4-methylbenzoyl]piperidin-4-yl]phenyl]butanoic acid]

Continued, compound first:

SMILES | inhibition at 100 µM [%] | Inhib % [%]
CCOC(=O)NCc1ccc(C2CCN(C(=O)c3ccc(C)c(NS(C)(=O)=O)c3)CC2)cc1 [Example 228, Ethyl N-[[4-[1-(3-methanesulfonamido-4-methylbenzoyl)piperidin-4-yl]phenyl]methyl]carbamate] | 85.5 | 
Cc1ccc(Oc2ccc(C3CCN(C(=O)c4ccc(C)c(NS(C)(=O)=O)c4)CC3)cc2)nn1 [Example 229, N-[2-methyl-5-[4-[4-(6-methylpyridazin-3-yl)oxyphenyl]piperidine-1-carbonyl]phenyl]methanesulfonamide] | 80.2 | 
Cc1ccc(C(=O)N2CCC(c3ccc(N(C)S(C)(=O)=O)cc3)CC2)cc1NS(C)(=O)=O [Example 230, N-[2-methyl-5-[4-[4-(methyl-methylsulfonylamino)phenyl]piperidine-1-carbonyl]phenyl]methanesulfonamide] | 73.2 | 
Cc1ccc(C(=O)N2CCC(c3ccc(C(=O)N4CCOCC4)cc3)CC2)cc1NS(C)(=O)=O [Example 231, N-[2-methyl-5-[4-[4-(morpholine-4-carbonyl)phenyl]piperidine-1-carbonyl]phenyl]methanesulfonamide] | 86.1 | 
Cc1ccc(C(=O)N2CCC(c3ccc(SC(F)(F)F)cc3)CC2)cc1NS(C)(=O)=O [Example 232, N-[2-methyl-5-[4-[4-(trifluoromethylsulfanyl)phenyl]piperidine-1-carbonyl]phenyl]methanesulfonamide] | 88.9 | 
CNC(=O)NCc1ccc(C2CCN(C(=O)c3ccc(C)c(NS(C)(=O)=O)c3)CC2)cc1 [Example 233, 1-[[4-[1-(3-methanesulfonamido-4-methylbenzoyl)piperidin-4-yl]phenyl]methyl]-3-methylurea] | 81.8 | 
CCNC(=O)NCc1ccc(C2CCN(C(=O)c3ccc(C)c(NS(C)(=O)=O)c3)CC2)cc1 [Example 234, 1-ethyl-3-[[4-[1-(3-methanesulfonamido-4-methylbenzoyl)piperidin-4-yl]phenyl]methyl]urea] | 78.3 | 
CCCC(=O)NCc1ccc(C2CCN(C(=O)c3ccc(C)c(NS(C)(=O)=O)c3)CC2)cc1 [Example 235, N-[[4-[1-(3-methanesulfonamido-4-methylbenzoyl)piperidin-4-yl]phenyl]methyl]butanamide] | 72.8 | 
Cc1ccc(C(=O)N2CCC(c3ccc(CNC(=O)CC(C)C)cc3)CC2)cc1NS(C)(=O)=O [Example 236, N-[[4-[1-(3-methanesulfonamido-4-methylbenzoyl)piperidin-4-yl]phenyl]methyl]-3-methylbutanamide] | 59.8 | 

Same assay, conditions: compounds excluded from the claims by proviso

SMILES | IC50s in the range of about 0.001 μM to about 30 μM
COC(=O)c1ccc(C2CCN(C(=O)c3ccc(C)c(NS(C)(=O)=O)c3)CC2)cc1 [Methyl 4-[1-(3-methanesulfonamido-4-methylbenzoyl)piperidin-4-yl]benzoate] | do not have IC50s in the range of about 0.001 μM to about 30 μM
CS(=O)(=O)Nc1cc(C(=O)N2CCC(c3ccc(C#N)cc3)CC2)ccc1Cl [N-[2-chloro-5-[4-(4-cyanophenyl)piperidine-1-carbonyl]phenyl]methanesulfonamide] | do not have IC50s in the range of about 0.001 μM to about 30 μM
Cc1ccc(C(=O)N2CCC(c3ccccc3)CC2)cc1NS(C)(=O)=O [N-[2-methyl-5-(4-phenylpiperidine-1-carbonyl)phenyl]methanesulfonamide] | do not have IC50s in the range of about 0.001 μM to about 30 μM
Cc1ccc(C(=O)N2CCC(c3cccc(-c4ccccc4)c3)CC2)cc1NS(C)(=O)=O [N-[2-methyl-5-[4-(3-phenylphenyl)piperidine-1-carbonyl]phenyl]methanesulfonamide] | do not have IC50s in the range of about 0.001 μM to about 30 μM
Cc1ccc(C(=O)N2CCC(c3ccc(-c4ncccn4)cc3)CC2)cc1NS(C)(=O)=O [N-[2-methyl-5-[4-(4-pyrimidin-2-ylphenyl)piperidine-1-carbonyl]phenyl]methanesulfonamide] | do not have IC50s in the range of about 0.001 μM to about 30 μM
Cc1ccc(C(=O)N2CCC(c3ccc(S(=O)(=O)N4CCCC4)cc3)CC2)cc1NS(C)(=O)=O [N-[2-methyl-5-[4-(4-pyrrolidin-1-ylsulfonylphenyl)piperidine-1-carbonyl]phenyl]methanesulfonamide] | do not have IC50s in the range of about 0.001 μM to about 30 μM
Cc1ccc(C(=O)N2CCC(c3cccc(-c4cncs4)c3)CC2)cc1NS(C)(=O)=O [N-[2-methyl-5-[4-[3-(1,3-thiazol-5-yl)phenyl]piperidine-1-carbonyl]phenyl]methanesulfonamide] | do not have IC50s in the range of about 0.001 μM to about 30 μM
Cc1ccc(C(=O)N2CCC(c3ccc(N4CCCC4=O)cc3)CC2)cc1NS(C)(=O)=O [N-[2-methyl-5-[4-[4-(2-oxopyrrolidin-1-yl)phenyl]piperidine-1-carbonyl]phenyl]methanesulfonamide] | do not have IC50s in the range of about 0.001 μM to about 30 μM

Same assay, conditions: unit inferred

IC50 [nM] | SMILES
1780 | COCCOCC#Cc1ccc(C2CCN(C(=O)c3ccc(C)c(NS(C)(=O)=O)c3)CC2)cc1 [Example 247, N-[5-[4-[4-[3-(2-methoxyethoxy)prop-1-ynyl]phenyl]piperidine-1-carbonyl]-2-methylphenyl]methanesulfonamide]
405 | CNC(=O)CCc1ccc(C2CCN(C(=O)c3ccc(C)c(NS(C)(=O)=O)c3)CC2)cc1 [Example 248, 3-[4-[1-(3-methanesulfonamido-4-methylbenzoyl)piperidin-4-yl]phenyl]-N-methylpropanamide]
515 | Cc1ccc(C(=O)N2CCC(c3ccc(CCC(=O)N(C)C)cc3)CC2)cc1NS(C)(=O)=O [Example 249, 3-[4-[1-(3-methanesulfonamido-4-methylbenzoyl)piperidin-4-yl]phenyl]-N,N-dimethylpropanamide]
1440 | Cc1ccc(C(=O)N2CCC(c3ccc(C#CCCCO)cc3)CC2)cc1NS(C)(=O)=O [Example 250, N-[5-[4-[4-(5-hydroxypent-1-ynyl)phenyl]piperidine-1-carbonyl]-2-methylphenyl]methanesulfonamide]
663 | Cc1ccc(C(=O)N2CCC(c3ccc(C#CCCO)cc3)CC2)cc1NS(C)(=O)=O [Example 251, N-[5-[4-[4-(4-hydroxybut-1-ynyl)phenyl]piperidine-1-carbonyl]-2-methylphenyl]methanesulfonamide]
3330 | Cc1ccc(C(=O)N2CCC(c3ccc(C#CC(C)(C)O)cc3)CC2)cc1NS(C)(=O)=O [Example 252, N-[5-[4-[4-(3-hydroxy-3-methylbut-1-ynyl)phenyl]piperidine-1-carbonyl]-2-methylphenyl]methanesulfonamide]
12700 | Cc1ccc(C(=O)N2CCC(c3ccc(CNS(=O)(=O)CC(=O)O)cc3)CC2)cc1NS(C)(=O)=O [Example 253, 2-[[4-[1-(3-methanesulfonamido-4-methylbenzoyl)piperidin-4-yl]phenyl]methylsulfamoyl]acetic acid]
